Assay: refractive index (Na D-line) (dimensionless); xn = mol fraction of the nth substance listed
Details: 100 kPa, Liquid, Standard Abbe refractometry

O=C1OCCO1 [ethylene carbonate] + CCn1cc[n+](C)c1.[Br-]
refractive index
Details | x1 = 0.106 | x1 = 0.222 | x1 = 0.2945 | x1 = 0.3671 | x1 = 0.4655 | x1 = 0.6002 | x1 = 0.7142 | x1 = 0.7981 | x1 = 0.8946
298.2 K | 1.5505 | 1.5405 | 1.531 | 1.5245 | 1.5105 | 1.498 | 1.4835 | 1.4695 | 1.45
308.2 K | 1.548 | 1.5385 | 1.529 | 1.5235 | 1.5085 | 1.4955 | 1.481 | 1.466 | 1.445
318.2 K | 1.5455 | 1.5345 | 1.5275 | 1.52 | 1.5065 | 1.493 | 1.4775 | 1.4635 | 1.4425

O=C1OCCO1 [ethylene carbonate] + O
Details | refractive index
298.2 K, x2 = 0.0993 | 1.4205
298.2 K, x2 = 0.1962 | 1.4175
298.2 K, x2 = 0.2943 | 1.414
298.2 K, x2 = 0.3321 | 1.4125
298.2 K, x2 = 0.4172 | 1.4085
298.2 K, x2 = 0.4758 | 1.4055
298.2 K, x2 = 0.5337 | 1.401
298.2 K, x2 = 0.5766 | 1.399
298.2 K, x2 = 0.6159 | 1.397
298.2 K, x2 = 0.6887 | 1.391
298.2 K, x2 = 0.7258 | 1.386
298.2 K, x2 = 0.7789 | 1.3805
298.2 K, x2 = 0.8239 | 1.375
298.2 K, x2 = 0.881 | 1.364
298.2 K, x2 = 0.9186 | 1.356
298.2 K, x2 = 0.9593 | 1.345
298.2 K, x2 = 0.9778 | 1.34
308.2 K, x2 = 0.0993 | 1.417
308.2 K, x2 = 0.1962 | 1.4145
308.2 K, x2 = 0.2943 | 1.411
308.2 K, x2 = 0.3321 | 1.409
308.2 K, x2 = 0.4172 | 1.4055
308.2 K, x2 = 0.4739 | 1.4015
308.2 K, x2 = 0.5337 | 1.3985
308.2 K, x2 = 0.5753 | 1.3955
308.2 K, x2 = 0.6159 | 1.3925
308.2 K, x2 = 0.688 | 1.3875
308.2 K, x2 = 0.725 | 1.381
308.2 K, x2 = 0.7785 | 1.3765
308.2 K, x2 = 0.8234 | 1.3705
308.2 K, x2 = 0.8807 | 1.361
308.2 K, x2 = 0.9183 | 1.354
308.2 K, x2 = 0.9591 | 1.3435
308.2 K, x2 = 0.9777 | 1.3385
318.2 K, x2 = 0.0993 | 1.414
318.2 K, x2 = 0.1962 | 1.4105
318.2 K, x2 = 0.2943 | 1.4075
318.2 K, x2 = 0.3321 | 1.406
318.2 K, x2 = 0.4172 | 1.4015
318.2 K, x2 = 0.473 | 1.3985
318.2 K, x2 = 0.5315 | 1.395
318.2 K, x2 = 0.5744 | 1.3925
318.2 K, x2 = 0.6147 | 1.3895
318.2 K, x2 = 0.6871 | 1.384
318.2 K, x2 = 0.7243 | 1.3785
318.2 K, x2 = 0.7779 | 1.374
318.2 K, x2 = 0.8228 | 1.368
318.2 K, x2 = 0.8803 | 1.3585
318.2 K, x2 = 0.9181 | 1.3505
318.2 K, x2 = 0.959 | 1.3425
318.2 K, x2 = 0.9777 | 1.337

Source: the NIST ThermoML archive (doi:10.1016/j.fluid.2019.05.015)
